Patent US20260124213A1, “STAPHYLOCOCCUS AUREUS PBP4 INHIBITORS AND METHOD OF USE” (UNIVERSITY OF ROCHESTER, priority 2022, published 2026)
Where “and” joins values, the source holds several entries; their conditions need not be identical. Equal entries are not always repeated.

How the values were obtained:
Type in all cases: cell-based, Staphylococcus aureus
MRSA strain AH-1263 = experiment: Broth microdilution antibiotic potentiation; conditions: AH-1263
Procedure, shortened: (§1)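 MRSA grown 6 h in CAMHB, subcultured to 5×10^5 CFU/mL, then adjuvant compound added from DMSO stock. Antibiotic serially 2-fold diluted across plate in adjuvant-containing culture, antibiotic-alone as control; plates incubated at 37° C.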

[1] = tested on: MRSA strain ATCC BAA-1556; experiment: Broth microdilution antibiotic potentiation; conditions: ATCC BAA-1556
Procedure, shortened: as §1

MRSA strain AH-2204 = experiment: Broth microdilution antibiotic potentiation; conditions: AH-2204
Procedure, shortened: as §1

strain CRBΔpbp4 = experiment: microbe, parasite or virus in culture; conditions: CRBΔpbp4
MRSA strain BAA-1770 = experiment: Broth microdilution antibiotic potentiation; conditions: Ex. 3 compound at 60 μM
Description: Broth Microdilution Method for Antibiotic Potentiation with MRSA Strains. Bacteria were cultured for 6 hours in CAMHB and sub-cultured to 5×10^5 CFU/mL in CAMHB. Subcultures were aliquoted (4 mL) into culture tubes and then inoculated with compound from 10 mM or 100 mM stock in DMSO to the desired concentration. […] Bacteria treated with antibiotic alone served as the control. Samples from the secondary culture tubes were then aliquoted (200 μL) into the first row of wells of a 96-well microtiter plate. Rows 2-11 were filled (100 μL) with the remaining 4 mL of bacterial subculture containing the adjuvant. Row 12 was filled (100 μL) with uninoculated media. From row 1, 100 μL was transferred to row two and mixed 5-8 times before being transferred to row 3. This procedure was used to serial dilute the rest of the rows through 10. The microtiter plate was then covered in Press 'n Seal and incubated at 37° C.

S. aureus strain CRB = experiment: microbe, parasite or virus in culture; conditions: CRB
Description: Fractional Inhibitory Concentration Index (FICI). Fractional inhibitory testing was performed in checkerboard format to determine whether putative PBP4 inhibitors potentiated the antimicrobial effects of β-lactams toward S. aureus strains USA300 and CRB, as previously described (Chojacnki, et al. Journal of Antimicrobial Chemotherapy, 2003, 52, 1). To do so, in triplicate 10^5 CFU of each strain (10 μL) was added to individual wells of a microtiter plate containing 90 μL MH media. […] Plates were incubated at 37° C. for 16-20 hour and the lowest concentration of each test agent that inhibited bacterial growth alone or in combination was determined by the naked eye. The fractional inhibitory concentration (FIC) index was calculated using the formula: FIC of A (MIC of drug A in combination/MIC of drug A alone)+FIC B ([…]/MIC of drug B alone). A synergistic interaction was defined as a FICI value of less than 0.5, an additive interaction was defined as a FICI value between 0.5 and 1.0, an indifferent interaction was defined as a FICI value between 1.0 and 4.0, and an antagonistic interaction was defined as a FICI value of more than 4.0.

pbp4 expression in CRB = experiment: Quantitative reverse transcriptase PCR of pbp4 transcript; conditions: 25 μM, 3 hour
Description: Quantitative Reverse Transcriptase PCR. PBP4 transcript titers of bacterial cells exposed to putative PBP4 inhibitors were measured using real time quantitative PCR (RT-qPCR), as previously described (Chojnacki, et al. Antibiotics, 2021, 10, 369). Briefly, overnight cultures of S. aureus strains USA300, USA300Δpbp4, CRB, and CRBΔpbp4 were grown overnight in MH media, diluted (1:100 dilution) in fresh media and sub-cultured to a final OD600 nm of 0.2 at 37° C. with aeration. […] Cells were washed with PBS buffer, and collected via centrifugation at 1,250×g for 10 minutes. Total bacterial RNA was isolated from cell pellets using Qiagen® RNeasy kits, following the manufacturer's guidelines for prokaryotic RNA isolation (Qiagen®, Germantown, MD). A total of 2 μg RNA was DNase treated and repurified using RNeasy kits.
To measure pbp4 expression, a total of 400 ng of total bacterial RNA was used as a template for qRT-PCR using pbp4 primers (forward, 5′-[…]-3′; reverse, 5′-[…]-3′) and a total of 4 ng of total bacterial RNA was used as a template for primers specific for 16S rRNA (forward, 5′-[…]-3′; reverse, 5′-[…]-3′). Bacterial RNA was amplified and measured using PerfeCTa® SYBR Green FastMix® and qScript® cDNA SuperMix® kits following the manufacturer's recommendations (QuantaBio®, Beverly, MA). […]

[2] = Ex. 3 compound at 60 μM (18 and 19 at 30 μM)

Compound: O=C(Nc1ccc2[nH]c(-c3cccs3)nc2c1)c1ccco1 [Compound 1 (7729837)]
- Ampicillin MIC (MRSA strain AH-1263; [2]): 8 µg/mL
- Ampicillin MIC fold reduction (MRSA strain AH-1263; [2]): (2)
- Cefotaxime MIC (MRSA strain AH-1263; [2]): 8 µg/mL
- Cefotaxime MIC fold reduction (MRSA strain AH-1263; [2]): (4)
- Oxacillin MIC (MRSA strain AH-1263; [2]): 1 µg/mL
- Amoxicillin MIC (MRSA strain AH-1263; with Ex. 3 compound): 8 µg/mL
- Cephalothin MIC (MRSA strain AH-1263; with Ex. 3 compound): 1 µg/mL
- Cephalothin MIC fold reduction (MRSA strain AH-1263; with Ex. 3 compound): 32
- Penicillin G MIC (MRSA strain AH-1263; with Ex. 3 compound): 4 µg/mL
- Penicillin G MIC fold reduction (MRSA strain AH-1263; with Ex. 3 compound): 2
- Piperacillin MIC (MRSA strain AH-1263; with Ex. 3 compound): 8 µg/mL
- Piperacillin MIC fold reduction (MRSA strain AH-1263; with Ex. 3 compound): 2
- Ampicillin MIC [1, 2]: 8 µg/mL
- Ampicillin MIC fold reduction [1, 2]: (2)
- Cefotaxime MIC [1, 2]: 16 µg/mL
- Cefotaxime MIC fold reduction [1, 2]: (2)
- Oxacillin MIC [1, 2]: 2 µg/mL
- Amoxicillin MIC ([1]; with Ex. 3 compound): 8 µg/mL
- Cephalothin MIC ([1]; with Ex. 3 compound): 1 µg/mL
- Cephalothin MIC fold reduction ([1]; with Ex. 3 compound): 16
- Penicillin G MIC ([1]; with Ex. 3 compound): 2 µg/mL
- Piperacillin MIC ([1]; with Ex. 3 compound): 8 µg/mL
- Piperacillin MIC fold reduction ([1]; with Ex. 3 compound): 2
- Ampicillin MIC (MRSA strain AH-2204; [2]): 2 µg/mL
- Cefotaxime MIC (MRSA strain AH-2204; [2]): 8 µg/mL
- Cefotaxime MIC fold reduction (MRSA strain AH-2204; [2]): (2)
- Oxacillin MIC (MRSA strain AH-2204; [2]): 0.5 µg/mL and 0.6 µg/mL
- Amoxicillin MIC (MRSA strain AH-2204; with Ex. 3 compound): 2 µg/mL
- Cephalothin MIC (MRSA strain AH-2204; with Ex. 3 compound): 0.125 µg/mL
- Cephalothin MIC fold reduction (MRSA strain AH-2204; with Ex. 3 compound): 32
- Penicillin G MIC (MRSA strain AH-2204; with Ex. 3 compound): 1 µg/mL
- Piperacillin MIC (MRSA strain AH-2204; with Ex. 3 compound): 4 µg/mL
- Cmpd (putative PBP4 inhibitor) MIC, Alone (strain CRBΔpbp4): 400 µM
- Fold-decrease in ceftobiprole resistance in combination (strain CRBΔpbp4): 0
- Cmpd concentration, Combination (strain CRBΔpbp4; with ceftobiprole): 50 µM
- BPR (ceftobiprole) MIC, Combination (strain CRBΔpbp4; with putative PBP4 inhibitor): 0.25 µg/mL
- Oxacillin MIC fold reduction (MRSA strain BAA-1770): 32
- Cmpd (putative PBP4 inhibitor) MIC, Alone (S. aureus strain CRB): 200 µM
- Fold-decrease in ceftobiprole resistance in combination (S. aureus strain CRB): 2
- Cmpd concentration, Combination (S. aureus strain CRB; with ceftobiprole): 50 µM
- BPR (ceftobiprole) MIC, Combination (S. aureus strain CRB; with putative PBP4 inhibitor): 64 µg/mL
- pbp4 expression (qRT-PCR) (pbp4 expression in CRB): significantly reduced
